Reference: PMC9413491, “A Novel and Cross-Species Active Mammalian INDY (NaCT) Inhibitor Ameliorates Hepatic Steatosis in Mice with Diet-Induced Obesity” (Metabolites, 2022)

Key:
DIO mice [1] = assay: Short-term tolerability studies in the DIO mouse model; type: in vivo
Excerpt: Next, we tested the functional activity of ETG-5773 in vivo to establish whether the effects on in vitro citrate uptake and FAS were physiologically relevant. […] Therefore, we applied pair-fed control groups to explore the pharmacological actions on metabolism without interference from food-intake effects.
[…] […] The potential for off-target effects on feeding behaviour provided the rational for including pair-fed control groups.

DIO mice [2] = assay: 28-day treatment of diet-induced obesity (DIO) mice; type: in vivo, mouse
Method: We performed in vivo testing in DIO mice (for 7- and 28-day treatment), an established model designed to study high-fat-diet-induced hepatic steatosis and associated cardiometabolic traits. We established DIO in four-week-old C57BL/6N male mice that were fed a high-fat diet (HFD, 60 kcal% fat, D12492; Research Diets, Inc.; New Brunswick, NJ, USA) until 11 weeks of age.
Mice were housed at a temperature of 22–24 °C, with a day/night cycle of 12/12 h (07:00-19:00–07:00) and had access to the appropriate diet and tap water ad libitum. Animals allocated to the pair-feeding group were fed the same amount of food as the corresponding treatment group had consumed the day before. Food was only withdrawn for overnight fasting on the penultimate study day before the section on the final day. We randomised groups of n = 12 for treatment and n = 8 for pair-feeding cage-wise according to random fed blood glucose levels and body weight before the study treatment was started. For all animals, the high-fat diet was started at the same age.
We treated DIO mice with the inhibitor or corresponding vehicle (5% DMSO/10% Cremophor® EL/85% water) twice a day at the same time by oral gavage according to their grouping (5, 15, and 50 mg/kg dose groups, and vehicle control groups). During the study, we measured body weight and blood glucose. We measured glucose concentrations in tail tip blood samples with the “Accu-Chek® Performa” glucometer (Roche, Basel, Switzerland, range <33.3 mmol/L). We determined random fed blood glucose and fasting blood glucose after overnight fasting.
An intraperitoneal glucose tolerance test was performed after an overnight fasting period. Mice were injected with 1g/kg glucose and blood glucose was measured over a period of 180 min.
At the end of study day 28, we obtained blood and liver samples. In anesthetised animals, we collected retro-orbital blood samples in non-coated tubes (Sarstedt, Inc., Nümbrecht, Germany). Then, we sacrificed animals by cervical dislocation. We dissected and weighed the livers and immediately froze liver samples in liquid nitrogen for further analysis.
For serum sample generation, we centrifuged blood at 4000× g for 10 min and dispensed serum samples into a 110 µL plus an additional aliquot. Samples were stored at −80 °C. For Piccolo® system (Abaxis, Inc., Union City, CA, USA) analysis (lipid panel including triglycerides and cholesterol), we used a 110 µL serum aliquot.
The frozen tissue from liver samples were used to determine the triglyceride content via triglyceride assay according to the manufacturer’s protocol (Sigma-Aldrich, Cat.No.TR0100) using glycerol as a standard (Sigma-Aldrich, Glycerol G7793, St. Louis, MO, USA).
We determined body composition in mice using the non-invasive Bruker Minispec Instrument MQ 10 NMR Analyser (Bruker, Billerica, MA, USA). We placed mice in a clear, plastic cylinder and kept them immobile by inserting a tight-fitting plunger into the cylinder. For scanning, the tube was placed in the sample chamber for approximately one minute. Body composition was calculated and related to whole body weight.
We isolated total RNA from individual liver samples from all animals in 1.5 mL Trizol reagent (Life Technologies, Carlsbad, CA, USA) at 4 °C according to the manufacturer’s instructions. Then, we purified total RNA utilising the RNeasy Mini Kit (Qiagen, Hilden, Germany) with DNase-treatment to completely remove genomic DNA according to the instructions of the manufacturer. Subsequently, RNA was reverse transcribed using Superscript II RnaseH Reverse Transcriptase (Life Technologies) and subjected to Taqman analysis using the Taqman Fast Advanced Master Mix (Applied Biosystems, Weiterstadt, Germany). The Mix contains AmpliTaq® Fast DNA Polymerase, AmpErase UNG, dNTPs with dUTP, passive reference Rox and optimised buffer components. Quantitative PCR was performed in the Quantstudio 7 Flex System (Applied Biosystems, Weiterstadt, Germany). […]

[3] = system: fatty acid synthesis in HepG2 cells; assay: Fatty acid synthesis assay ([14C] citrate incorporation) in HepG2 cells; type: cell-based, human
Method: We performed the fatty acid synthesis assay in HepG2 cells. We seeded cells into black clear-bottom 96-well plates (Corning 3340 cell plate) 75,000/well and incubated at 37 °C. After 16–24 h, we washed the plates once with 100 µL PBS (+CaCl2 +MgCl2) and added 50 µL assay medium ([…] containing 11 mM glucose, 10 mM HEPES, and 1 nM insulin) per well. Then, we applied test substances in assay medium (10 µL, 5% DMSO) and incubated for 20 min at 37 °C. Thereafter, we added 10 µL assay medium containing [14C] citrate (final concentration 50 µM) and PrestoBlue reagent (1× final concentration; Thermo Fisher Scientific, Waltham, MA, USA) and incubated for 180 min (37 °C, 5% CO2). We measured cell viability (ViewLux instrument, Perkin Elmer). We removed medium by vacuum aspiration and washed cells once with 100 µL PBS (+CaCl2 +MgCl2). We lysed cells with 50 µL lysis buffer (0.1 N NaOH, 0.1 % Triton X-100) and sealed plates with Tape Pads and vortexed. For the saponification reaction, we incubated plates for 16–24 h at 70 °C in a humidified environment. Then, we removed seals and added 200 µL 0.1 N HCl to neutralise the pH. We transferred 150 µL from each into corresponding wells of a 96-well Flash plate (Perkin Elmer) and sealed with TopSeal A (Perkin Elmer). We incubated plates for 4 h at 70 °C and for at least 3 h at room temperature in the dark. We measured [14C] radioactivity (microbeta2, Perkin Elmer). For control samples, we applied 50 mM unlabelled citrate or C75 (Sigma-Aldrich, St. Louis, MO, USA, C5490).

[4] = 15 mg/kg oral twice daily, 28 days
[5] = 15 mg/kg oral twice daily, 28 days, p < 0.001
[6] = 15 mg/kg oral twice daily, 28 days, p < 0.01
[7] = 15 mg/kg oral twice daily, 28 days, p < 0.05

## O=C(Nc1cc(Cl)cc(C(F)(F)F)c1)OCCC(F)(F)F [ETG-5773]
DIO mice [1]; 15 mg/kg twice daily
  Tolerability of the selected dose: well tolerated
DIO mice [1]; preliminary short-term tolerability studies, DIO mouse model
  Food intake: reduced food intake
DIO mice [2]; 15 mg/kg oral twice daily
  Glucose excursion AUC (IPGTT) vs pair-fed control: not significant
DIO mice [2]; 15 mg/kg oral twice daily, 1 g/kg glucose i.p., all p < 0.05
  Glucose tolerance (IPGTT) vs vehicle control and pair-fed group: significantly improved glucose tolerance
DIO mice [2]; [4]
  Plasma cholesterol concentrations: no effect
  Plasma triglyceride concentrations vs vehicle: though not compared to the vehicle
DIO mice [2]; 15 mg/kg oral twice daily, 28 days, non-significant p = 0.2
  Reduction in fasting insulin vs pair-fed: 70%
DIO mice [2]; 15 mg/kg oral twice daily, 28 days, p < 0.0001
  Reduction in body weight vs vehicle group: 19%
DIO mice [2]; [5]
  Reduction in fasting blood glucose vs pair-fed: 25%
  Reduction in hepatic triglyceride content vs pair-fed: 25%
DIO mice [2]; [6]
  Plasma triglyceride concentrations vs pair-fed: slightly increased
  Reduction in body weight vs pair-fed group: 14%
DIO mice [2]; [7]
  Decrease in fasting blood glucose vs vehicle: 17%
  Reduction in fasting insulin vs vehicle: 75%
DIO mice [2]; 15 mg/kg oral twice daily, p < 0.05
  Glucose excursion AUC (IPGTT) vs vehicle control: significantly reduced
DIO mice [2]; 15 mg/kg twice daily, 28 days, p 0.09
  Hepatic Fasn mRNA vs pair-fed group: trend for reduction
DIO mice [2]; 15 mg/kg twice daily, 28 days, p < 0.0001
  Hepatic Srebf1 mRNA vs vehicle control and pair-fed: significantly downregulated
DIO mice [2]; 15 mg/kg twice daily, 28 days, p < 0.0001 vehicle, p < 0.001 pair-fed
  Hepatic Scd1 mRNA vs vehicle control and pair-fed: significantly downregulated
DIO mice [2]; 15 mg/kg twice daily, 28 days, p < 0.001 vehicle, p < 0.01 pair-fed
  Hepatic Acly mRNA vs vehicle control and pair-fed: significantly downregulated
DIO mice [2]; 15 mg/kg twice daily, 28 days, p < 0.01
  Hepatic Fasn mRNA vs vehicle control: significantly downregulated
DIO mice [2]; 15 mg/kg twice daily, 28 days, p < 0.05
  Hepatic Acc1 mRNA vs vehicle control: significantly downregulated
DIO mice [2]; 15 mg/kg twice daily, 28 days, p < 0.1
  Hepatic Acc1 mRNA vs pair-fed group: trend for reduction
DIO mice [2]; 15 mg/kg twice daily, day 22
  Body fat as percentage of body weight vs vehicle and pair-fed: significant decrease
  Lean mass as percentage of body weight vs vehicle and pair-fed: significant increase
DIO mice [2]; 15 mg/kg twice daily, day 22, p < 0.0001 vs vehicle, p < 0.01 vs pair-fed
  Fat mass (NMR) vs vehicle control and pair-fed group: markedly reduced
DIO mice [2]; 15 mg/kg twice daily, day 22, p < 0.01, not significant vs pair-fed
  Lean mass (NMR) vs vehicle control: significantly lower
[3]; ETG-5773 compared to PF-06649298, HepG2
  IC50 difference in fatty acid synthesis versus PF-06649298: around 40 fold
[3]; Homo sapiens, HepG2, [14C] citrate incorporation, read-out: IC50 fatty acid synthesis, HepG2
  IC50: 1000 nM
